pIC50: −log10 of the molar value. Where a name gives a salt, the structure may show the parent alone.
What follows are compounds tested against T1, mGlyT-1b (Mus musculus, UniProt P28571) (assay: Glycine uptake inhibition assay (mGlyT-1b)). Conditions: [3H]-glycine uptake, Flp-in-CHO cells stably transfected with mGlyT1b cDNA, 20 min preincubation at 22° C.
T1 construct: host or cells: Flp-in-CHO
T1 sequence (P28571 1-651 isoform P28571-2): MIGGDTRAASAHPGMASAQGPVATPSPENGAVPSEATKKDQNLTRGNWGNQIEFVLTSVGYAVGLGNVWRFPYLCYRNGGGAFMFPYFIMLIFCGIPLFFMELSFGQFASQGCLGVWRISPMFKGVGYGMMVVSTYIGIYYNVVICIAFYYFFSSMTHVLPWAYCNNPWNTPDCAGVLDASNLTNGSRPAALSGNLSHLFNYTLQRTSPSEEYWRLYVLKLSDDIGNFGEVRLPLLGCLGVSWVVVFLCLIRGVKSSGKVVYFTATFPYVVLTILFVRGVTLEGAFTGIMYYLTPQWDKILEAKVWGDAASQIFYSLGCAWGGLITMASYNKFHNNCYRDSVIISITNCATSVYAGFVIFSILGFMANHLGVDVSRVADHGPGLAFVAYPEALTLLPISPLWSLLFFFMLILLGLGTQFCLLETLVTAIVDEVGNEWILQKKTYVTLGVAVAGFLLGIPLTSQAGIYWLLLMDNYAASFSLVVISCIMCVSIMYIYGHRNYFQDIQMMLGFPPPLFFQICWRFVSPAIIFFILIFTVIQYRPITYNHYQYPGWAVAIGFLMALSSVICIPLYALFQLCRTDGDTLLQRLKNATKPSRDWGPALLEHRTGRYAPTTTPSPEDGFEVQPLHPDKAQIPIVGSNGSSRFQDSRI
Assay type: cell-based
Experimental: Nutrient mixture F-12 (Gibco Life-technologies), fetal bovine serum (FBS) 5%, (Gibco life technologies), Penicillin/Streptomycin 1% (Gibco life technologies), Hygromycin 0.6 mg/ml (Gibco life technologies), Glutamine 1 mM Gibco life technologies)
150 mM NaCl, 10 mM Hepes-Tris, pH 7.4, 1 mM CaCl2, 2.5 mM KCl, 2.5 mM MgSO4, 10 mM (+) D-glucose.
Flp-in™-CHO (Invitrogen Cat n° R758-07) cells stably transfected with mGlyT1b cDNA.
Glycine Uptake Inhibition Assay (mGlyT-1b)
On day 1 mammalian cells, (Flp-in™-CHO), transfected with mGlyT-1b cDNA, were plated at the density of 40,000 cells/well in complete F-12 medium, without hygromycin in 96-well culture plates. On day 2, the medium was aspirated and the cells were washed twice with uptake buffer (UB). The cells were then incubated for 20 min at 22° C. with either (i) no potential competitor, (ii) 10 mM non-radioactive glycine, (iii) a concentration of a potential inhibitor. A range of concentrations of the potential inhibitor was used to generate data for calculating the concentration of inhibitor resulting in 50% of the effect (e.g. IC50, the concentration of the competitor inhibiting glycine uptake of 50%). A solution was then immediately added containing [^3H]-glycine 60 nM (11-16 Ci/mmol) and 25 μM non-radioactive glycine. The plates were incubated with gentle shaking and the reaction was stopped by aspiration of the mixture and washing (three times) with ice-cold UB. The cells were lysed with scintillation liquid, shaken 3 hours and the radioactivity in the cells was counted using a scintillation counter.

pIC50 | SMILES
7.50 | COc1cc(C(F)(F)F)cc(SC)c1C(=O)N[C@@]1(c2ccccc2)C[C@H](C)CN(C)C1 (mixture of isomers) [Example 85, N-((3R,5SR)-1,5-Dimethyl-3-phenyl-piperidin-3-yl)-2-methoxy-6-methylsulfanyl-4-trifluoromethyl-benzamide hydrochloride]
7.58 | CCc1cc(C(F)(F)F)ccc1C(=O)NC1(c2ccccc2)CCCN(C)C1 (racemic) [Example 4, rac-2-Ethyl-N-(1-methyl-3-phenyl-piperidin-3-yl)-4-trifluoromethyl-benzamide]
6.97 | CN1CCCC(NC(=O)c2c(F)cc(C(F)(F)F)cc2C(F)(F)F)(c2ccccc2)C1 (racemic) [Example 5, rac-2-Fluoro-N-(1-methyl-3-phenyl-piperidin-3-yl)-4,6-bis-trifluoromethyl-benzamide]
7.07 | COc1cc(C(F)(F)F)cc(Br)c1C(=O)NC1(c2ccccc2)CCCN(C)C1 (racemic) [Example 7, rac-2-Bromo-6-methoxy-N-(1-methyl-3-phenyl-piperidin-3-yl)-4-trifluoromethyl-benzamide]
7.69 | COc1cc(C(F)(F)F)cc(SC)c1C(=O)NC1(c2ccccc2)CCCN(C)C1C (racemic) [Example 11, rac-N-(1,2-Dimethyl-3-phenyl-piperidin-3-yl)-2-methoxy-6-methylsulfanyl-4-trifluoromethyl-benzamide]
7.89 | CN1CCCC(NC(=O)c2ccc(C(F)(F)F)cc2C2CC2)(c2ccccc2)C1 (racemic) [Example 13, rac-2-Cyclopropyl-N-(1-methyl-3-phenyl-piperidin-3-yl)-4-trifluoromethyl-benzamide]
6.86 | COc1cc(C(F)(F)F)cc(C(F)(F)F)c1C(=O)NC1(c2ccccc2)CCCN(C)C1 (racemic) [Example 16, rac-2-Methoxy-N-(1-methyl-3-phenyl-piperidin-3-yl)-4,6-bis-trifluoromethyl-benzamide]
7.61 | COc1cc(C(F)(F)F)cc(SC)c1C(=O)NC1(c2ccccc2)CCCN(C)C1 (racemic) [Example 18, rac-2-Methoxy-N-(1-methyl-3-phenyl-piperidin-3-yl)-6-methylsulfanyl-4-trifluoromethyl-benzamide]
7.17 | CSc1cc(C(F)(F)F)ccc1C(=O)NC1(c2ccccc2)CCCN(C)C1 (racemic) [Example 19, rac-N-(1-Methyl-3-phenyl-piperidin-3-yl)-2-methylsulfanyl-4-trifluoromethyl-benzamide]
6.90 | CCc1cc(C(F)(F)F)cc(C(F)(F)F)c1C(=O)NC1(c2ccccc2)CCCN(C)C1 (racemic) [Example 25, rac-2-Ethyl-N-(1-methyl-3-phenyl-piperidin-3-yl)-4,6-bis-trifluoromethyl-benzamide]
7.23 | COc1cc(C(F)(F)F)cc(C(F)(F)F)c1C(=O)NC1(c2ccc(F)cc2)CCCN(C)C1 (racemic) [Example 26, rac-N-[3-(4-Fluoro-phenyl)-1-methyl-piperidin-3-yl]-2-methoxy-4,6-bis-trifluoromethyl-benzamide]
7.58 | COc1cc(C(F)(F)F)cc(SC)c1C(=O)NC1(c2ccc(F)cc2)CCCN(C)C1 (racemic) [Example 27, rac-N-[3-(4-Fluoro-phenyl)-1-methyl-piperidin-3-yl]-2-methoxy-6-methylsulfanyl-4-trifluoromethyl-benzamide]
7.56 | COc1cc(C(F)(F)F)cc(SC)c1C(=O)NC1(c2ccc(Cl)cc2)CCCN(C)C1 (racemic) [Example 28, rac-N-[3-(4-Chloro-phenyl)-1-methyl-piperidin-3-yl]-2-methoxy-6-methylsulfanyl-4-trifluoromethyl-benzamide]
6.73 | CN1CCCC(NC(=O)c2ccc(C(F)(F)F)cc2OC(F)F)(c2ccccc2)C1 (racemic) [Example 39, rac-2-Difluoromethoxy-N-(1-methyl-3-phenyl-piperidin-3-yl)-4-trifluoromethyl-benzamide]
7.61 | COc1cc(C(F)(F)F)cc(SC)c1C(=O)NC1(c2cccc(Cl)c2)CCCN(C)C1 (racemic) [Example 45, rac-N-[3-(3-Chloro-phenyl)-1-methyl-piperidin-3-yl]-2-methoxy-6-methylsulfanyl-4-trifluoromethyl-benzamide hydrochloride]
6.77 | COc1ccc(C2(NC(=O)c3c(OC)cc(C(F)(F)F)cc3SC)CCCN(C)C2)cc1 (racemic) [Example 46, rac-2-Methoxy-N-[3-(4-methoxy-phenyl)-1-methyl-piperidin-3-yl]-6-methylsulfanyl-4-trifluoromethyl-benzamide]
6.74 | COc1cc(C(F)(F)F)cc(SC)c1C(=O)NC1(c2ccc(F)cn2)CCCN(C)C1 (racemic) [Example 47, rac-N-(5-Fluoro-1′-methyl-1′,4′,5′,6′-tetrahydro-2′H-[2,3′]bipyridinyl-3′-yl)-2-methoxy-6-methylsulfanyl-4-trifluoromethyl-benzamide]
6.70 | COc1cc(C(F)(F)F)cc(SC)c1C(=O)NC1(c2ccccc2)CC(F)CN(C)C1 (racemic) [Example 48, rac-N-(5-Fluoro-1-methyl-3-phenyl-piperidin-3-yl)-2-methoxy-6-methylsulfanyl-4-trifluoromethyl-benzamide]
7.24 | COc1cc(C(F)(F)F)cc(SC)c1C(=O)NC1(c2ccccc2)CC(O)CN(C)C1 (racemic) [Example 51, rac-N-(5-Hydroxy-1-methyl-3-phenyl-piperidin-3-yl)-2-methoxy-6-methylsulfanyl-4-trifluoromethyl-benzamide]
7.11 | COc1cc(C(F)(F)F)cc(SC)c1C(=O)NC1(c2ccccc2)CCCN(C(C)C)C1 (racemic) [Example 55, rac-N-(1-Isopropyl-3-phenyl-piperidin-3-yl)-2-methoxy-6-methylsulfanyl-4-trifluoromethyl-benzamide; hydrochloride]
6.81 | COc1cc(C(F)(F)F)cc(SC)c1C(=O)NC1(C2CCCCC2)CCCN(C)C1 (racemic) [Example 58, rac-N-(3-Cyclohexyl-1-methyl-piperidin-3-yl)-2-methoxy-6-methylsulfanyl-4-trifluoromethyl-benzamide]
6.61 | CN1CCCC(NC(=O)c2ccc(C(F)(F)F)cc2C2CCC2)(c2ccccc2)C1 (racemic) [Example 66, rac-2-Cyclobutyl-N-(1-methyl-3-phenyl-piperidin-3-yl)-4-trifluoromethyl-benzamide hydrochloride]
6.89 | COc1cc(C(F)(F)F)cc(SC)c1C(=O)NC1(c2ccc(F)cc2F)CCCN(C)C1 (racemic) [Example 67, rac-N-[3-(2,4-Difluoro-phenyl)-1-methyl-piperidin-3-yl]-2-methoxy-6-methylsulfanyl-4-trifluoromethyl-benzamide]
6.76 | COc1cc(C(F)(F)F)cc(SC)c1C(=O)NC1(c2ccccc2F)CCCN(C)C1 (racemic) [Example 68, rac-N-[3-(2-Fluoro-phenyl)-1-methyl-piperidin-3-yl]-2-methoxy-6-methylsulfanyl-4-trifluoromethyl-benzamide]
6.93 | COc1cc(C(F)(F)F)cc(SC)c1C(=O)NC1(c2cc(F)ccc2F)CCCN(C)C1 (racemic) [Example 69, rac-N-[3-(2,5-Difluoro-phenyl)-1-methyl-piperidin-3-yl]-2-methoxy-6-methylsulfanyl-4-trifluoromethyl-benzamide]
6.70 | CC(C)c1cc(C(F)(F)F)ccc1C(=O)NC1(c2ccccc2)CCCN(C)C1 (racemic) [Example 70, rac-2-Isopropyl-N-(1-methyl-3-phenyl-piperidin-3-yl)-4-trifluoromethyl-benzamide hydrochloride]
7.25 | COc1cc(C(F)(F)F)cc(SC)c1C(=O)NC1(c2ccncc2)CCCN(C)C1 (racemic) [Example 71, rac-2-Methoxy-6-methylsulfanyl-N-(1-methyl-1,4,5,6-tetrahydro-2H-[3,4′]bipyridinyl-3-yl)-4-trifluoromethyl-benzamide]

Source: patent US9067911B2, “Piperidine derivatives” (Hoffmann-La Roche Inc., priority 2009, dated 2015)
